Experimental data reported in patent US6410528B1, “Morpholino ethers” (Glaxo Wellcome S.A., priority 1998, dated 2002).
Converted amounts (≈) assume the structure as drawn.

What was measured:
C. glabrata 522 = experiment: in vitro antifungal screen, MIC by two-fold serial dilution; assay type: cell-based, Candida glabrata
Experimental: (§1) The antifungal activity of the compounds of formula (I) may be determined using conventional in vitro and in vivo screens. Thus, the in vitro evaluation of the anti-fungal activity of compounds of the invention was performed on liquid or solid medium by the anti-fungal two-fold serial dilution technique of determining the minimum inhibitory concentration (MIC) of anti-fungal agent that inhibited development of growth after 24 to 48 hours of incubation at 37° C. In practice, a series of agar plates or broth microdilution panels containing two-fold dilutions of anti-fungal agent tested were inoculated with a standard culture of a clinically relevant pathogen, for example, Candida albicans. The agar plates or broth microdulution panels were then examined for the presence or absence of growth of the fungus and the appropriate MIC values were noted.
(§2) Compounds of formula (I) have been tested for anti fungal activity in a standard in vitro screen and the minimum inhibiting concentration (MIC; μg/ml) determined for each compound against a variety of clinically relevant pathogens.

C. glabrata 2375E = experiment: as above; assay type: cell-based, Candida glabrata
Experimental: as §1, §2

C. albicans CL-236 = experiment: as above; assay type: cell-based, Candida albicans
Experimental: as §1, §2

C. albicans 4711E = experiment: as above; assay type: cell-based, Candida albicans
Experimental: as §1, §2

C. parapsilosis 2372E = experiment: as above; assay type: cell-based, Candida parapsilosis
Experimental: as §1, §2

C. tropicalis 2808E = experiment: as above; assay type: cell-based, Candida tropicalis
Experimental: as §1, §2

C.albicans 4711E = experiment: system candidiasis test in mice; assay type: in vivo; conditions: administered orally, system candidiasis test (C.albicans 4711E) in mice
Experimental: The fungicidal activity of the compounds of formula (I) may also be determined in conventional tests in animals e.g. rats and mice. For example the lethal systems candidiasis test in mice.
(§3) The compounds of the invention are essentially non-toxic at therapeutically useful levels. For example, the compound of Example 2 when admistered orally in a system candidiasis test (C.albicans 4711E) in mice, has an ED50 value of 9.0 mg/kg. The LD50 value for the compound of example 2, in female mice is >300 mg/kg iv.

[1] = toxicity (LD50) in female mice; assay type: in vivo; conditions: iv
Experimental: as §3

[2] = test system: C. pseudotropicalis 2371E; experiment: in vitro antifungal screen, MIC by two-fold serial dilution; assay type: cell-based, Candida pseudotropicalis
Experimental: as §1, §2

| MIC (C. glabrata 522) | MIC (C. glabrata 2375E) | MIC (C. albicans CL-236) | MIC (C. albicans 4711E) | MIC (C. parapsilosis 2372E) | MIC (C. tropicalis 2808E) | MIC [2] | Compound | ED50 (C.albicans 4711E) | LD50 [1] |
| --- | --- | --- | --- | --- | --- | --- | --- | --- | --- |
| 1 µg/mL (≈ 1.92 µM) | 1 µg/mL (≈ 1.92 µM) | ≦0.001 μg/ml | ≦0.001 μg/ml | >125 µg/mL | 0.008 µg/mL (≈ 0.0153 µM) |  | CC1CN(Cc2ccccc2)CC(OCC23CC4C(C)CCC4C4(C=O)CC2C=C(C(C)C)C43C(=O)O)O1 [Example 1i, [1R-(1α,3aβ,4β,4aβ,7β,7aα,8aβ)]8a-[(2R,6R)-(4-benzyl-6-methylmorpholin-2-yl)-oxymethyl]-4-formyl-4,4a,5,6,7,7a,8,8a-octahydro-7-methyl-3-(1-methylethyl)-1,4-methano-s-indacene-3a(1H)-carboxylic acid] |  |  |
| 4 µg/mL | 4 µg/mL | 0.015 µg/mL | ≦0.001 μg/ml | >125 µg/mL | 0.06 µg/mL | 0.004 µg/mL | CC1CN(C2CC2)CC(OCC23CC4C(C)CCC4C4(C=O)CC2C=C(C(C)C)C43C(=O)[O-])O1.[K+] [Example 4, [1R-(1α,3aβ,4β,4aβ,7β,7aα,8aβ)]8a-[(2R,6R)-(4-cyclopropyl-6-methyl-morpholin-2-yl)-oxymethyl]-4-formyl-4,4a,5,6,7,7a,8,8a-octahydro-7-methyl-3-(1-methylethyl)-1,4-methano-s-indacene-3a(1H)-carboxylic acid, potassium salt] |  |  |
| 0.5 µg/mL (≈ 1.06 µM) | 0.25 µg/mL (≈ 0.532 µM) | 0.015 µg/mL (≈ 0.0319 µM) | 0.008 µg/mL (≈ 0.017 µM) | 16 µg/mL (≈ 34.1 µM) | 0.06 µg/mL (≈ 0.128 µM) | 0.015 µg/mL (≈ 0.0319 µM) | C#CCN1CC(C)OC(OCC23CC4C(C)CCC4C4(C=O)CC2C=C(C(C)C)C43C(=O)O)C1 [Example 6, [1R-(1α,3aβ,4β,4aβ,7β,7aα,8aβ)]8a-[(2R,6R)-(4-(2-propynyl)-6-methyl-morpholin-2-yl)-oxymethyl]-4-formyl-4,4a,5,6,7,7a,8,8a-octahydro-7-methyl-3-(1-methylethyl)-1,4-methano-s-indacene-3a(1H)-carboxylic acid] |  |  |
| 0.25 µg/mL (≈ 0.454 µM) | 0.25 µg/mL (≈ 0.454 µM) | 0.008 µg/mL (≈ 0.0145 µM) | ≦0.001 μg/ml | 4 µg/mL (≈ 7.27 µM) | 0.008 µg/mL (≈ 0.0145 µM) | ≦0.001 μg/ml | C=C(Br)CN1CC(C)OC(OCC23CC4C(C)CCC4C4(C=O)CC2C=C(C(C)C)C43C(=O)O)C1 [Example 7, [1R-(1α,3aβ,4β,4aβ,7β,7aα,8aβ)]8a-[(2R,6R)-(4-(2-bromoallyl)-6-methyl-morpholin-2-yl)-oxymethyl]-4-formyl-4,4a,5,6,7,7a,8,8a-octahydro-7-methyl-3-(1-methylethyl)-1,4-methano-s-indacene-3a(1H)-carboxylic acid] |  |  |
| 0.03 µg/mL (≈ 0.0593 µM) | 0.03 µg/mL (≈ 0.0593 µM) | ≦0.001 μg/ml | ≦0.001 μg/ml | 1 µg/mL (≈ 1.98 µM) | ≦0.001 μg/ml | ≦0.001 μg/ml | C=C(Cl)CN1CC(C)OC(OCC23CC4C(C)CCC4C4(C=O)CC2C=C(C(C)C)C43C(=O)O)C1 (stereo not drawn) [Example 8, [1R-(1α,3aβ,4β,4aβ,7β,7aα,8aβ)]8a-[(2R6R)-(4-(2-chloroallyl)-6-methyl-morpholin-2-yl)-oxymethyl]-4-formyl-4,4a,5,6,7,7a,8,8a-octahydro-7-methyl-3-(1-methylethyl)-1,4-methano-s-indacene-3a(1H)-carboxylic acid] |  |  |
| 1 µg/mL (≈ 1.97 µM) | 1 µg/mL (≈ 1.97 µM) | 0.06 µg/mL (≈ 0.118 µM) | 0.03 µg/mL (≈ 0.0591 µM) | 16 µg/mL (≈ 31.5 µM) | 0.06 µg/mL (≈ 0.118 µM) | 0.03 µg/mL (≈ 0.0591 µM) | CC1CN(CC=C(F)F)CC(OCC23CC4C(C)CCC4C4(C=O)CC2C=C(C(C)C)C43C(=O)O)O1 [Example 10, [1R-(1α,3aβ,4β,4aβ,7β,7aα,8aβ)]8a-[(2R,6R)-(4-(3,3-difluoroallyl)-6-methyl-morpholin-2-yl)-oxymethyl]-4-formyl-4,4a,5,6,7,7a,8,8a-octahydro-7-methyl-3-(1-methylethyl)-1,4-methano-s-indacene-3a(1H)-carboxylic acid] |  |  |
| 0.25 µg/mL (≈ 0.515 µM) | 0.25 µg/mL (≈ 0.515 µM) | ≦0.001 μg/ml | ≦0.001 μg/ml | 1 µg/mL (≈ 2.06 µM) | 0.008 µg/mL (≈ 0.0165 µM) | ≦0.001 μg/ml | C=C(C)CN1C[C@H](OC[C@@]23C[C@@H]4[C@H](C)CC[C@H]4[C@@]4(C=O)C[C@@H]2C=C(C(C)C)[C@@]34C(=O)O)O[C@H](C)C1 [Example 12] |  |  |
| 0.12 µg/mL (≈ 0.248 µM) | 0.12 µg/mL (≈ 0.248 µM) | 0.004 µg/mL (≈ 0.00827 µM) | ≦0.001 μg/ml | 8 µg/mL (≈ 16.5 µM) | 0.015 µg/mL (≈ 0.031 µM) | ≦0.001 μg/ml | C=C=CCN1CC(C)OC(OCC23CC4C(C)CCC4C4(C=O)CC2C=C(C(C)C)C43C(=O)O)C1 [Example 14, [1R-(1α,3aβ,4β,4aβ,7β,7aα,8aβ)]8a-[(2R,6R)-4-(2,3-butadienyl)-6-methyl-morpholin-2-yl)-oxymethyl]-4-formyl-4,4a,5,6,7,7a,8,8a-octahydro-7-methyl-3-(1-methylethyl)-1,4-methano-s-indacene-3a(1H)-carboxylic acid] |  |  |
| 0.25 µg/mL (≈ 0.453 µM) | 0.25 µg/mL (≈ 0.453 µM) | ≦0.001 μg/ml | ≦0.001 μg/ml | 2 µg/mL (≈ 3.63 µM) | 0.008 µg/mL (≈ 0.0145 µM) | ≦0.001 μg/ml | COc1ccc(CN2CC(C)OC(OCC34CC5C(C)CCC5C5(C=O)CC3C=C(C(C)C)C54C(=O)O)C2)cc1 [Example 16, [1R-(1α,3aβ,4β,4aβ,7β,7aα,8β)]8a-[(2R,6R)4-(4-methoxybenzyl)-6-methyl-morpholin-2-yl)-oxymethyl]-4-formyl-4,4a,5,6,7,7a,8,8a-octahydro-7-methyl-3-(1-methylethyl)-1,4-methano-s-indacene-3a(1H)-carboxylic acid] |  |  |
| 8 µg/mL (≈ 17.3 µM) | 8 µg/mL (≈ 17.3 µM) | 0.25 µg/mL (≈ 0.542 µM) | 0.03 µg/mL (≈ 0.065 µM) | >125 µg/mL | 1 µg/mL (≈ 2.17 µM) |  | CON1CC(C)OC(OCC23CC4C(C)CCC4C4(C=O)CC2C=C(C(C)C)C43C(=O)O)C1 [Example 18, 1R-(1α,3aβ,4β,4aβ,7β,7aα,8aβ)]8a-[(2R,6R)-6-methyl-4-methoxy-morpholin-2-yl)-oxymethyl]-4-formyl-4,4a,5,6,7,7a,8,8a-octahydro-7-methyl-3-(1-methylethyl)-1,4-methano-s-indacene-3a(1H)-carboxylic acid] |  |  |
| 0.5 µg/mL (≈ 1.07 µM) | 0.5 µg/mL (≈ 1.07 µM) | 0.25 µg/mL (≈ 0.533 µM) | 0.25 µg/mL (≈ 0.533 µM) | >125 µg/mL | 0.5 µg/mL (≈ 1.07 µM) | 0.12 µg/mL (≈ 0.256 µM) | C=CCN1C[C@H](OC[C@@]23C[C@@H]4[C@H](C)CC[C@H]4[C@@]4(C#N)C[C@@H]2C=C(C(C)C)[C@@]34C(=O)O)O[C@H](C)C1 [Example 25, [1R-(1α,3aβ,4β,4aβ,7β,7aα,8aβ)]8a-[(2R,6R)-(4-allyl-6-methyl-morpholin-2-yl)-oxymethyl]-4-cyano4,4a,5,6,7,7a,8,8a-octahydro-7-methyl-3-(1-methylethyl)-1,4-methano-s-indacene-3a(1H)-carboxylic acid] |  |  |

| Compound | MIC (C. glabrata 522) | MIC (C. glabrata 2375E) | MIC (C. albicans CL-236) | MIC (C. albicans 4711E) | MIC (C. parapsilosis 2372E) | MIC (C. tropicalis 2808E) | MIC [2] | ED50 (C.albicans 4711E) | LD50 [1] |
| --- | --- | --- | --- | --- | --- | --- | --- | --- | --- |
| C=CCN1CC(C)OC(OCC23CC4C(C)CCC4C4(C=O)CC2C=C(C(C)C)C43C(=O)O)C1 [Example 2, [1R-(1α,3aβ,4β,4aβ,7β, 7aα,8aβ)]8a-[(2R,6R)-(4-allyl-6-methyl-morpholin-2-yl)-oxymethyl]-4-formyl-4,4a,5,6,7,7a,8,8a-octahydro-7-methyl-3-(1-methylethyl)-1,4-methano-s-indacene-3a(1H)-carboxylic acid] | 0.5 µg/mL (≈ 1.06 µM) | 0.5 µg/mL (≈ 1.06 µM) | 0.03 µg/mL (≈ 0.0636 µM) | 0.008 µg/mL (≈ 0.017 µM) | >125 µg/mL | 0.03 µg/mL (≈ 0.0636 µM) | 0.004 µg/mL (≈ 0.00848 µM) | 9.0 mg/kg | > 300 mg/kg |
